Measurements taken from BigSolDB 2.1.

c1ccc2c(c1)sc1ccccc12
solubility (mole fraction)
Conditions | in acetonitrile | in ethanol | in formic acid | in isopropanol | in methanol | in n-butanol
278.15 K | 0.00454 | 0.00347 | 0.000475 | 0.00245 | 0.00126 | 0.00485
283.15 K | 0.00611 | 0.00433 | 0.000578 | 0.00347 | 0.00163 | 0.00621
288.15 K | 0.00845 | 0.00529 | 0.000668 | 0.00436 | 0.00192 | 0.00788
293.15 K | 0.0128 | 0.00619 | 0.000756 | 0.00577 | 0.00242 | 0.00999
298.15 K | 0.0157 | 0.0075 | 0.000881 | 0.00703 | 0.0029 | 0.0132
303.15 K | 0.0189 | 0.00919 | 0.000995 | 0.00874 | 0.00331 | 0.016
308.15 K | 0.0241 | 0.0105 | 0.00112 | 0.0111 | 0.00406 | 0.0192
313.15 K | 0.0321 | 0.0127 | 0.00126 | 0.0136 | 0.00478 | 0.0242
318.15 K | 0.0402 | 0.0148 | 0.0014 | 0.0162 | 0.00573 | 0.0303
323.15 K | 0.0506 | 0.0174 | 0.00157 | 0.0202 | 0.00668 | 0.0381
328.15 K | 0.0639 | 0.0206 | 0.00177 | 0.0249 | 0.00795 | 0.0458
